Biological target: PDE10
Assay: MPDE10A7 enzyme inhibition, IMAP TR-FRET assay
Type: biochemical
Conditions: read-out: PDE10 IC50
Protocol: MPDE10A7 Enzyme Activity and Inhibition
Enzyme Activity. An IMAP TR-FRET assay was used to analyze the enzyme activity (Molecular Devices Corp., Sunnyvale Calif.). 5 μL, of serial diluted PDE10A (BPS Bioscience, San Diego, Calif.) or tissue homogenate was incubated with equal volumes of diluted fluorescein labeled cAMP or cGMP for 60 min in 384-well polystyrene assay plates (Corning, Corning, N.Y.) at room temperature. After incubation, the reaction was stopped by adding 60 μL, of diluted binding reagents and was incubated for 3 hours to overnight at room temperature. The plates were read on an Envision (Perkin Elmer, Waltham, Mass.) for time resolved fluorescence resonance energy transfer. The data were analyzed with GraphPad Prism (La Jolla, Calif.).
Enzyme Inhibition. To check the inhibition profile, 5 μL, of serial diluted compounds were incubated with 5 μL, of diluted PDE10 enzyme (BPS Bioscience, San Diego, Calif.) or tissue homogenate in a 384-well polystyrene assay plate (Corning, Corning, N.Y.) for 30 min at room temperature. After incubation, 10 μL, of diluted fluorescein labeled cAMP or cGMP substrate were added and incubated for 60 min at room temperature. The reaction was stopped by adding 60 μL of diluted binding reagents and plates were read on an Envision (Perkin Elmer, Waltham, Mass.) for time resolved fluorescence resonance energy transfer. The data were analyzed with GraphPad Prism (La Jolla, Calif.).

Compared with `O=C(CO)N1CCC(c2nccnc2OC2CC(Nc3nc4ccccc4s3)C2)CC1` [Example 73, 1-(4-(3-((1S,3S)-3-(benzo[d]thiazol-2-ylamino)cyclobutoxy)pyrazin-2-yl)piperidin-1-yl)-2-hydroxyethanone], `CN1CCC(c2nccnc2O[C@H]2C[C@@H](Nc3nc4ccccc4s3)C2)CC1` [Example 74, N-((1S,3S)-3-((3-(1-methylpiperidin-4-yl)pyrazin-2-yl)oxy)cyclobutyl)benzo[d]thiazol-2-amine] is 10-fold higher in IC50: 4.81 nM for the first, 49.8 nM for the second. The first is the more potent here.

Going from `F[C@H]1CCN(c2nccnc2OC2CC(Nc3nc4ccccc4s3)C2)C1` (stereo partly drawn) [Example 97, N-((1S,3S)-3-((3-(3-fluoropyrrolidin-1-yl)pyrazin-2-yl)oxy)cyclobutyl)benzo[d]thiazol-2-amine] to `O=C1CCN(c2nccnc2OC2CC(Nc3nc4ccccc4s3)C2)CC1` [Example 98, 1-(3-((1S,3S)-3-(benzo[d]thiazol-2-ylamino)cyclobutoxy)pyrazin-2-yl)piperidin-4-one], the IC50 rises from 3.35 nM to 21.1 nM (6.3-fold).

Going from `FC1(F)CCN(c2nccnc2OC2CC(Nc3nc4ccccc4s3)C2)CC1` [Example 99, N-((1S,3S)-3-((3-(4,4-difluoropiperidin-1-yl)pyrazin-2-yl)oxy)cyclobutyl)benzo[d]thiazol-2-amine] to `CC(O)C1CCN(c2nccnc2OC2CC(Nc3nc4ccccc4s3)C2)CC1` [Example 102, 1-(1-(3-((1S,3S)-3-(benzo[d]thiazol-2-ylamino)cyclobutoxy)pyrazin-2-yl)piperidin-4-yl)ethanol], the IC50 falls from 17.7 nM to 10.8 nM (1.6-fold).

First: Fc1ccc(C2CCOCC2)c(OC2CC(Nc3nc4ccccc4s3)C2)n1 [Example 105, N-((1S,3S)-3-((6-fluoro-3-(tetrahydro-2H-pyran-4-yl)pyridin-2-yl)oxy)cyclobutyl)benzo[d]thiazol-2-amine]
Second: N#Cc1ccc(N[C@H]2C[C@@H](Oc3ncccc3C3CCOCC3)C2)nc1 [Example 106, 6-(((1S,3S)-3-((3-(tetrahydro-2H-pyran-4-yl)pyridin-2-yl)oxy)cyclobutyl)amino)nicotinonitrile]
The IC50 of the first is 780-fold lower: 0.758 nM for the first, 590 nM for the second. The first is the more potent here.

Going from `N#Cc1ccc(N[C@H]2C[C@H](Oc3ncccc3C3CCOCC3)C2)nc1` [Example 107, 6-(((1R,3R)-3-((3-(tetrahydro-2H-pyran-4-yl)pyridin-2-yl)oxy)cyclobutyl)amino)nicotinonitrile] to `FC(F)(F)c1ccc(N[C@H]2C[C@H](Oc3ncccc3C3CCOCC3)C2)nc1` [Example 108, N-((1R,3R)-3-((3-(tetrahydro-2H-pyran-4-yl)pyridin-2-yl)oxy)cyclobutyl)-5-(trifluoromethyl)pyridin-2-amine], the IC50 falls from 865 nM to 436 nM (2-fold).

Going from `FC(F)(F)c1ccc(N[C@H]2C[C@@H](Oc3ncccc3C3CCOCC3)C2)nc1` [Example 109, N-((1S,3S)-3-((3-(tetrahydro-2H-pyran-4-yl)pyridin-2-yl)oxy)cyclobutyl)-5-(trifluoromethyl)pyridin-2-amine] to `Clc1ccc(N[C@H]2C[C@@H](Oc3ncccc3C3CCOCC3)C2)nc1` [Example 110, 5-chloro-N-((1S,3S)-3-((3-(tetrahydro-2H-pyran-4-yl)pyridin-2-yl)oxy)cyclobutyl)pyridin-2-amine], the IC50 falls from 106 nM to 26.2 nM (4-fold).

Compared with `Clc1ccc(N[C@H]2C[C@H](Oc3ncccc3C3CCOCC3)C2)nc1` [Example 111, 5-chloro-N-((1R,3R)-3-((3-(tetrahydro-2H-pyran-4-yl)pyridin-2-yl)oxy)cyclobutyl)pyridin-2-amine], `CC(=O)N1CCC(c2cccnc2OC2CC(NS(=O)(=O)c3ccc(C)cc3)C2)CC1` [Example 114, N-((1S,3S)-3-((3-(1-acetylpiperidin-4-yl)pyridin-2-yl)oxy)cyclobutyl)-4-methylbenzenesulfonamide] is 150-fold higher in IC50: 83.7 nM for the first, 12400 nM for the second.

`CC(=O)N1CCC(c2cccnc2OC2CC(NS(=O)(=O)c3ccc(C)cc3)C2)CC1` [Example 115, N-((1R,3R)-3-((3-(1-acetylpiperidin-4-yl)pyridin-2-yl)oxy)cyclobutyl)-4-methylbenzenesulfonamide] and `FC(F)(F)c1ccc(NC2CC(Oc3ncncc3C3CCOCC3)C2)nc1` [Example 116, N-((1R,3R)-3-((5-(tetrahydro-2H-pyran-4-yl)pyrimidin-4-yl)oxy)cyclobutyl)-5-(trifluoromethyl)pyridin-2-amine] are within 1.5-fold of each other in IC50: 916 nM for the first, 959 nM for the second.

Going from `FC(F)(F)c1ccc(NC2CC(Oc3ncncc3C3CCOCC3)C2)nc1` [Example 117, N-((1S,3S)-3-((5-(tetrahydro-2H-pyran-4-yl)pyrimidin-4-yl)oxy)cyclobutyl)-5-(trifluoromethyl)pyridin-2-amine] to “TRANS-BENZOTHIAZOL-2-YL-{3-[5-FLUORO-3-(TETRAHYDRO-PYRAN-4-YL)-PYRIDIN-2-YL]-CYCLOBUTYL}-AMINE [Example 5B]”, the IC50 falls from 321 nM to 0.1 nM (3200-fold).

Same assay, conditions: separated enantiomers; absolute stereochemistry not determined, value can be for either enantiomer of the pair; read-out: IC50

Going from `OC[C@H]1CCCN(c2nccnc2OC2CC(Nc3nc4ccccc4s3)C2)C1` (stereo partly drawn) [Example 91, ((S)-1-(3-((1S,3R)-3-(benzo[d]thiazol-2-ylamino)cyclobutoxy)pyrazin-2-yl)piperidin-3-yl)methanol] to `OC[C@@H]1CCCN(c2nccnc2OC2CC(Nc3nc4ccccc4s3)C2)C1` (stereo partly drawn) [Example 92, ((R)-1-(3-((1S,3S)-3-(benzo[d]thiazol-2-ylamino)cyclobutoxy)pyrazin-2-yl)piperidin-3-yl)methanol], the IC50 falls from 26 nM to 2.81 nM (9.3-fold). The second is the more potent here.

Going from `C[C@H]1CCN(c2nccnc2OC2CC(Nc3nc4ccccc4s3)C2)C1` (stereo partly drawn) [Example 93, N-((1S,3S)-3-((3-((R)-3-methylpyrrolidin-1-yl)pyrazin-2-yl)oxy)cyclobutyl)benzo[d]thiazol-2-amine] to `N#C[C@@H]1CCN(c2nccnc2OC2CC(Nc3nc4ccccc4s3)C2)C1` (stereo partly drawn) [Example 95, (R)-1-(3-((1S,3S)-3-(benzo[d]thiazol-2-ylamino)cyclobutoxy)pyrazin-2-yl)pyrrolidine-3-carbonitrile], the IC50 falls from 3.24 nM to 0.728 nM (4.5-fold).

Going from `C[C@H]1CCN(c2nccnc2OC2CC(Nc3nc4ccccc4s3)C2)C1` (stereo partly drawn) [Example 94, N-((1R,3S)-3-((3-((S)-3-methylpyrrolidin-1-yl)pyrazin-2-yl)oxy)cyclobutyl)benzo[d]thiazol-2-amine] to `N#C[C@H]1CCN(c2nccnc2OC2CC(Nc3nc4ccccc4s3)C2)C1` (stereo partly drawn) [Example 96, (S)-1-(3-((1S,3R)-3-(benzo[d]thiazol-2-ylamino)cyclobutoxy)pyrazin-2-yl)pyrrolidine-3-carbonitrile], the IC50 falls from 8.02 nM to 5.27 nM (1.5-fold).

Reference: patent publication US8952037B2, “Heteroaryloxycarbocyclyl compounds as PDE10 inhibitors” (Amgen Inc., priority 2010, dated 2015)
